Values of other authors, collected in patent US7204982B2, “Compositions and methods for treatment and detection of multiple cancers” (The Regents of the University of California, priority 2002, dated 2007).
Counter-ions that a name gives are not always drawn.

Columns and labels:
malignant gliomas = details: high doses, orally administered; Couldwell et al. 1996
[1] = test system: human glioblastoma cell lines (U87, U373, and U138); details: cell lines lack detectable estrogen receptor expression

CC/C(=C(\c1ccccc1)c1ccc(OCCN(C)C)cc1)c1ccccc1 [tamoxifen, (Z)-2[p[(1,2-diphenyl-1-butenyl)phenoxyl]-N,N-dimethylamine citrate]
clinical benefit (malignant gliomas): of benefit in some patients with malignant gliomas
cytotoxicity [1]: responsive to tamoxifen cytotoxicity
